One may read the IC50 as the concentration that inhibits the measured activity by half.

Among the data in US9126976B2 (Merck Sharp & Dohme Corp., priority 2011, dated 2015) are IC50 values, retold here.

For the first assay, the target named is CETP (Homo sapiens (Human), UniProt P11597). Put plainly: Scintillation Proximity Assay (SPA) for CETP activity. The format is biochemical. Particulars: Table 1, read-out: IC50. Here is the method: Protocol: Scintillation Proximity Assay (SPA) for CETP Activity
Sequence of CETP (P11597 18-493): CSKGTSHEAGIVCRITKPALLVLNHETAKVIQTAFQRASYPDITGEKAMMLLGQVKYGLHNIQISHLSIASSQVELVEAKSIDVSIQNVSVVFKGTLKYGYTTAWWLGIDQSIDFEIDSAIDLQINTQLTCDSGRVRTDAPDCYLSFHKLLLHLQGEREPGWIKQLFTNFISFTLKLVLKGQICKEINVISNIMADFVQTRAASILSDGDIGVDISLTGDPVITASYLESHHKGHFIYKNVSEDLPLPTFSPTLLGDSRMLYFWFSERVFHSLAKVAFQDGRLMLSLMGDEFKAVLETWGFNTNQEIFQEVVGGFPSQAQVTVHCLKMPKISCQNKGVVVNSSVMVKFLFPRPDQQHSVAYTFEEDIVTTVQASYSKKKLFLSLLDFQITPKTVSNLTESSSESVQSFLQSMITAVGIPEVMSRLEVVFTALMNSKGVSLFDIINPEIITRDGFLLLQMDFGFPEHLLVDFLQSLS
First, low density lipoprotein (LDL) (Meridian) was biotinylated by incubating LDL with biotin for 1 hour on ice, after which it was dialyzed to remove free biotin. Then compounds at varying concentrations were incubated with 15 nM CETP (reagent production group, In Vitro Pharmacology, MRL Rahway) and 50 ug/ml of the biotinylated LDL in 50 mM HEPES, 150 mM NaCl, pH 7.4, for 1 hour at 37° C. The reaction was started by adding 3H-cholesterol ester high density lipoprotein (HDL) (American Radiochemicals Corp) at a concentration of ˜0.6 nM. The reaction proceeded for 2 hours at 37° C., after which time it was quenched by the addition of 12% acetic acid. PVT streptavadin-coated scintillation proximity beads, which had been brought to room temperature, were then added at a concentration of 4 mg/ml. The assay was then mixed and counted after one half hour in a Microbeta plate reader.
Regarding `O[C@H](CN1c2ccccc2N(Cc2cc(F)cc(C(F)(F)F)c2)C[C@H]1c1ccccc1)C(F)(F)F` [Example 29, (R)-3-((R)-4-(3-fluoro-5-(trifluoromethyl)benzyl)-2-phenyl-3,4-dihydroquinoxalin-1(2H)-yl)-1,1,1-trifluoropropan-2-ol], the IC50 turned out to be 0.105 µM.

Turning to `O[C@H](CN1c2ccccc2N(Cc2cccc(Cl)c2)C[C@H]1c1ccccc1)C(F)(F)F` [Example 30, (R)-3-((R)-4-(3-chlorobenzyl)-2-phenyl-3,4-dihydroquinoxalin-1(2H)-yl)-1,1,1-trifluoropropan-2-ol], the IC50 came out at 1.4 µM.

As for `O[C@H](CN1c2ccccc2N(Cc2cc(Cl)cc(Cl)c2)C[C@H]1c1ccccc1)C(F)(F)F` [Example 31, (R)-3-((R)-4-(3,5-dichlorobenzyl)-2-phenyl-3,4-dihydroquinoxalin-1(2H)-yl)-1,1,1-trifluoropropan-2-ol], the IC50 is 2.76 µM.

As for `O[C@H](CN1c2ccccc2N(Cc2cc(Cl)cc(Cl)c2)C[C@H]1c1cccc(C(F)(F)F)c1)C(F)(F)F` [Example 32, (R)-3-((R)-4-(3,5-dichlorobenzyl)-2-(3-(trifluoromethyl)phenyl)-3,4-dihydroquinoxalin-1(2H)-yl)-1,1,1-trifluoro propan-2-ol], the IC50 came to 0.012 µM.

As for `Cc1ccccc1CN1C[C@@H](c2cccc(C(F)(F)F)c2)N(C[C@@H](O)C(F)(F)F)c2ccccc21` [Example 33, (R)-3-((R)-4-(2-methylbenzyl)-2-(3-(trifluoromethyl)phenyl)-3,4-dihydroquinoxalin-1(2H)-yl)-1,1,1-trifluoro propan-2-ol], the IC50 was determined as 0.428 µM.

As for `O[C@H](CN1c2ccccc2N(Cc2cccc(Cl)c2Cl)C[C@H]1c1cccc(C(F)(F)F)c1)C(F)(F)F` [Example 34, (R)-3-((R)-4-(2,3-dichlorobenzyl)-2-(3-(trifluoromethyl)phenyl)-3,4-dihydroquinoxalin-1(2H)-yl)-1,1,1-trifluoro propan-2-ol], the IC50 was found to be 0.169 µM.

Consider `O[C@H](CN1c2ccccc2N(Cc2c(Cl)cccc2Cl)C[C@H]1c1cccc(C(F)(F)F)c1)C(F)(F)F` [Example 35, (R)-3-((R)-4-(2,6-dichlorobenzyl)-2-(3-(trifluoromethyl)phenyl)-3,4-dihydroquinoxalin-1(2H)-yl)-1,1,1-trifluoro propan-2-ol], for which the IC50 is 1.16 µM.

With `O[C@H](CN1c2ccccc2N(CC2CCCCC2)C[C@H]1c1cccc(C(F)(F)F)c1)C(F)(F)F` [Example 37, (R)-3-((R)-4-(cyclohexylmethyl)-2-(3-(trifluoromethyl)phenyl)-3,4-dihydroquinoxalin-1(2H)-yl)-1,1,1-trifluoro propan-2-ol], the IC50 amounted to 1.27 µM.

Consider `O[C@H](CN1c2ccccc2N(Cc2ccsc2)C[C@H]1c1cccc(C(F)(F)F)c1)C(F)(F)F` [Example 38, (R)-3-((R)-4-(thiophenyl-3-ylmethyl)-2-(3-(trifluoromethyl)phenyl)3,4-dihydroquinoxalin-1(2H)-yl)-1,1,1-trifluoropropan-2-ol], for which the IC50 came out at 0.461 µM.

On to `O[C@H](CN1c2ccccc2N(Cc2ccc(Cl)cc2)C[C@H]1c1cccc(C(F)(F)F)c1)C(F)(F)F` [Example 39, (2R)-3-(4-(4-chlorobenzyl)-2-(3-(trifluoromethyl)phenyl)-3,4-dihydroquinoxalin-1(2H)-yl)-1,1,1-trifluoropropan-2-ol], for which the IC50 is 0.548 µM.

With `O[C@H](CN1c2ccccc2N(Cc2cccc(C(F)(F)F)c2)C[C@H]1c1cccc(C(F)(F)F)c1)C(F)(F)F` [Example 40, (2R)-1,1,1-trifluoro-3-(4-(3-(trifluoromethyl)benzyl)-2-(3-(trifluoromethyl)phenyl)-3,4-dihydroquinoxalin-1(2H)-yl)propan-2-ol], the IC50 worked out at 0.0571 µM.

On to `O[C@H](CN1c2ccccc2N(Cc2cc(F)cc(C(F)(F)F)c2)C[C@H]1c1cccc(C(F)(F)F)c1)C(F)(F)F` [Example 41, (2R)-1,1,1-trifluoro-3-(4-(3-fluoro-5-(trifluoromethyl)benzyl)-2-(3-(trifluoromethyl)phenyl)-3,4-dihydroquinoxalin-1(2H)-yl)propan-2-ol], for which the IC50 was 0.0452 µM.

With `CCc1cc(CN2C[C@@H](c3cccc(C(F)(F)F)c3)N(C[C@@H](O)C(F)(F)F)c3ccccc32)ccc1Cl` [Example 42, (2R)-3-(4-(4-chloro-3-ethylbenzyl)-2-(3-(trifluoromethyl)phenyl)-3,4-dihydroquinoxalin-1(2H)-yl)-1,1,1-trifluoropropan-2-ol], the IC50 stood at 0.0451 µM.

For `Cc1ccc(C(F)(F)F)cc1CN1C[C@@H](c2cccc(C(F)(F)F)c2)N(C[C@@H](O)C(F)(F)F)c2ccccc21` [Example 43, (2R)-1,1,1-trifluoro-3-(4-(2-methyl-5-(trifluoromethyl)benzyl)-2-(3-(trifluoromethyl)phenyl)-3,4-dihydroquinoxalin-1(2H)-yl)propan-2-ol], the IC50 was 0.27 µM.

Turning to `Cc1cccc(CN2C[C@@H](c3cccc(C(F)(F)F)c3)N(C[C@@H](O)C(F)(F)F)c3ccccc32)n1` [Example 44], the IC50 was 0.46 µM.

Take `O[C@H](CN1c2ccccc2N(Cc2cccc(OC(F)(F)F)c2)C[C@H]1c1ccc(Cl)cc1)C(F)(F)F` [Example 49]: the IC50 turned out to be 0.02 µM.

Turning to `COc1cc2ccc([C@@H]3CN(Cc4cccc(OC(F)(F)F)c4)c4ccccc4N3C[C@@H](O)C(F)(F)F)cc2cc1OC` [Example 50], the IC50 amounted to 0.193 µM.

`O[C@H](CN1c2ccccc2N(Cc2cccc(OC(F)(F)F)c2)C[C@H]1c1ccc2c(c1)OCCO2)C(F)(F)F` [Example 51]: the IC50 was found to be 0.209 µM.

For `O[C@H](CN1c2ccccc2N(Cc2cccc(OC(F)(F)F)c2)C[C@H]1c1ccc(F)cc1)C(F)(F)F` [Example 52], the IC50 was determined as 0.682 µM.

As for `Cc1ccc([C@@H]2CN(Cc3cccc(OC(F)(F)F)c3)c3ccccc3N2C[C@@H](O)C(F)(F)F)cc1` [Example 53], the IC50 is 0.056 µM.

Regarding `COc1ccc([C@@H]2CN(Cc3cccc(OC(F)(F)F)c3)c3ccccc3N2C[C@@H](O)C(F)(F)F)cc1` [Example 54], the IC50 was 0.069 µM.

Still in this assay, the particulars now being: read-out: SPA IC50.
With `O[C@H](CN1c2ccccc2N(Cc2cccc(OC(F)(F)F)c2)C[C@H]1c1cccc(C(F)(F)F)c1)C(F)(F)F` [Example 10], the IC50 is 0.009 µM.

`O[C@H](CN1c2ccccc2N(Cc2cccc(OC(F)(F)F)c2)C[C@H]1c1ccc(C(F)(F)F)cc1)C(F)(F)F` [Example 11]: the IC50 turned out to be 0.004 µM.

Consider `C[C@@H](c1cccc(C(F)(F)F)c1)N1C[C@@H](c2cccc(C(F)(F)F)c2)N(C[C@@H](O)C(F)(F)F)c2ccccc21` [Example 12], for which the IC50 is 0.028 µM.

As for `C[C@H](c1cccc(C(F)(F)F)c1)N1C[C@@H](c2cccc(C(F)(F)F)c2)N(C[C@@H](O)C(F)(F)F)c2ccccc21` [Example 13, (R)-1,1,1-trifluoro-3-((R)-2-(3-(trifluoromethyl)phenyl-4-((R)-1-(3-trifluoromethyl)phenyl)ethyl)-3,4-dihydroquinoxalin-1(2H)-yl)propan-2-ol], the IC50 came out at 0.01 µM.

Turning to `C[C@@H](c1ccccc1)N1C[C@@H](c2cccc(C(F)(F)F)c2)N(C[C@@H](O)C(F)(F)F)c2ccccc21` [Example 14], the IC50 came to 1.46 µM.

As for `C[C@H](c1ccccc1)N1C[C@@H](c2cccc(C(F)(F)F)c2)N(C[C@@H](O)C(F)(F)F)c2ccccc21` [Example 15], the IC50 came to 0.014 µM.

As for `COC(=O)c1cccc([C@@H]2CN(Cc3cccc(OC(F)(F)F)c3)c3ccccc3N2C[C@@H](O)C(F)(F)F)c1` [Example 16], the IC50 amounted to 0.027 µM.

`O[C@H](CN1c2ccccc2N(Cc2cccc(OC(F)(F)F)c2)C[C@H]1c1cccc(OC(F)(F)C(F)F)c1)C(F)(F)F` [Example 18]: the IC50 turned out to be 0.015 µM.

Regarding `CNC(=O)c1cccc(C2CN(Cc3cccc(OC(F)(F)F)c3)c3ccccc3N2C[C@@H](O)C(F)(F)F)c1` (stereo partly drawn) [Example 19, N-methyl-3-{1-[(R)-3,3,3-trifluoro-2-hydroxypropyl]-4-[3-(trifluoro-methoxy)benzyl]-1,2,3,4-tetrahydroquinoxalin-2-yl}benzamide], the IC50 turned out to be 0.09 µM.

In the case of `COc1cccc([C@@H]2CN(Cc3cccc(OC(F)(F)F)c3)c3ccccc3N2C[C@@H](O)C(F)(F)F)c1` [Example 20], the IC50 is 0.078 µM.

As to `O[C@H](CN1c2ccccc2N(Cc2cccc(OC(F)(F)F)c2)C[C@H]1c1cccc(OC(F)(F)F)c1)C(F)(F)F` [Example 21], the IC50 is 0.019 µM.

For `O[C@H](CN1c2ccccc2N(Cc2cccc(OC(F)(F)F)c2)C[C@H]1c1cccnc1)C(F)(F)F` [Example 22], the IC50 was 0.258 µM.

For `CS(=O)(=O)c1ccc([C@@H]2CN(Cc3cccc(OC(F)(F)F)c3)c3ccccc3N2C[C@@H](O)C(F)(F)F)cc1` [Example 23], the IC50 worked out at 0.096 µM.

As to `N#Cc1cccc([C@@H]2CN(Cc3cccc(OC(F)(F)F)c3)c3ccccc3N2C[C@@H](O)C(F)(F)F)c1` [Example 24], the IC50 is 0.098 µM.

`O[C@H](CN1c2ccccc2N(Cc2cccc(OC(F)(F)F)c2)C[C@H]1c1cc(C(F)(F)F)cc(C(F)(F)F)c1)C(F)(F)F` [Example 25]: the IC50 came to 0.77 µM.

Take `O[C@H](CN1c2ccccc2N(Cc2cccc(OC(F)(F)F)c2)C[C@H]1c1ccc(C(F)(F)F)nc1)C(F)(F)F` [Example 26]: the IC50 turned out to be 0.024 µM.

On to `CN(C)c1ncc([C@@H]2CN(Cc3cccc(OC(F)(F)F)c3)c3ccccc3N2C[C@@H](O)C(F)(F)F)cn1` [Example 27], for which the IC50 turned out to be 0.03 µM.

Consider `Cc1cc([C@@H]2CN(Cc3cccc(OC(F)(F)F)c3)c3ccccc3N2C[C@@H](O)C(F)(F)F)n(C)n1` [Example 28], for which the IC50 was 0.39 µM.
